Key:
[1] = test system: SCID mice with colitis induced by transfer of CD4+CD45RBhigh T-cells; assay: PDT in CD4+CD45RBhigh transfer colitis, clinical and endoscopic follow-up (Example 1); format: in vivo
Experimental: b) A rigid mini-endoscope Hopkins I (vision direct 0°, length 10 cm, diameter 1.9 mm, Anklin, Binningen, Switzerland) with a 9 Charrière (Ch) tube and a channel for instrumentation (Flexible biopsy forceps Ch 3, 53 cm length) coupled on the Coloview Basic equipment (light source Xenon 175 and Endovision Telecam SLB; Storz Inc, Tuttlingen, Germany) and the home made air inflation system (see above). […] First the colonoscopy technique was optimised in 10 wild type BALB/c mice and 10 SCID mice, which were colonoscoped repeatedly (3 times within a 2 weeks time period). Afterwards the accuracy of colonoscopy in diagnosis colitis was evaluated in BALB/c mice with sodium dextran sulfate (DSS) induced colitis and in SCID mice with colitis induced by transfer of a subpopulation of CD4+CD45RBhigh T-cells. For this purpose the mice were colonoscoped at diverse time points after onset of DSS administration or T-cell transfer and the endosocpic image was compared with the endoscopic image of normal mice and the histology after sacrificing the mice.
To induce CD4+ CD45RBhigh transfer colitis, T cells used for the adoptive transfer of the SCID mice were obtained from the spleens of six weeks old wild type BALB/c mice that were housed under specific pathogen-free (SPF) conditions at our animal care facility. Mice were sacrificed by cervical dislocation under anesthesia and spleen were recovered and kept in cold RPMI 1640 medium complemented with a final concentration of 2% fetal calf serum (FCS) until processing. The tissue was forced through 70 μm and 40 μm nylon meshes and washed. Spleen cells were then centrifugated and the pellet was resuspended in 5 ml of cold medium for counting. The cellular preparation was then enriched in CD4+ cells by magnetic cell sorting using CD4 (L3T4) MACS microbeads (Miltenyi Biotec, Gladbach, Germany). The enriched cells were then stained using fluorescein isothiocynate (FITC)-conjugated anti-CD4 and phyoerythrin (PE)—conjugated anti-CD45RB monoclonal antibodies (BD, Biosciences Pharmingen, San Diego, USA). CD4+CD45RB high cells were sorted by FACS, resuspended in PBS at the concentration of 10^6 cells/ml and finally 10^5 cells were injected intravenously under sterile conditions into 4-6 weeks old SCID mice.
Colonoscopy could safely be performed in normal BALB/c mice and SCID mice. The mouse colon could be intubated up to the right flexure. The length of the accessible mouse colon was approximately 4 cm with the rectum comprised. In DSS induced colitis a correlation between colitis and weight loss was observed, whereas in SCID mice with colitis after CD4+CD45RB^high T-cell transfer, endoscopic signs of colitis developed earlier as weight loss and the correlation between endoscopic signs of colitis and weight loss was less good. The colitis in DSS mice was segmental, the rectum was always spared, erythema, ulcerations, changes of the normal vascular pattern could be observed. […] Furthermore, since the length of the accessible mouse colon was only about 4 cm, they changed their scoring system concerning the length.

[2] = test system: SCID mice with TH1-mediated Crohn-like colitis after transfer of CD4+CD45RBhigh T-cells; assay: Endoscopic index of colitis severity (EICS) after low dose PDT in transfer colitis (Example 2); format: in vivo
Text: Since in example 1 only 55% of the mice developed colitis, Applicants have injected 4×10^5 cells CD4+CD45RB^high intravenously into 9.5 weeks old SCID mice in the following second set of SCID mice.
Evolution of colitis in SCID mice was monitored every week by colonoscopic investigation after induction. Mice with moderately inflamed colons [endoscopic index of colitis severity (EICS) index 4-8] or marked inflamed colons (EICS 9-13) were randomly assigned to either a <<low dose>> PDT group or no treatment group (disease control group). Unmanipulated age-matched SCID mice served as negative controls.
PDT was performed with a photosensitizing agent (δ-ALA) dose of 15 mg/kg, administered 3 hours before the illumination with the energy dose of 10 J/cm^2 per gastrointestinal tract tissue.
The illumination time was 100 s, the wavelength 635 nm.
After completing the experiments with 15 mg/kg δ-ALA and 10 J/cm^2, the Applicants evaluated whether an energy illumination energy of 20 or 2 J/cm^2 would provide an equivalent or better effect on colitis. Furthermore, the Applicants sought to determine whether PDT treatment could be repeated at short term and whether this re-treatment would have a beneficial effect on colitis too. To this end, the Applicants performed another set of experiment with marked inflamed mice in which half of the PDT treated mice (15 mg/kg S-ALA and 10 J/cm^2) were subjected to a second identical low dose PDT treatment at the time of the re-apparition of colitis symptoms, namely one week after the first PDT treatment.
Mice were monitored by colonoscopy at day 3 and weeks 1, 2, 3 and 4 post PDT treatment. In addition to parameters investigated in example 1, CD4 immunostaining and apoptosis detection were performed.
All statistical analyses were performed using the Prism version 4.0c software from GraphPad Software (San Diego, Calif.). The unpaired two-tail Mann-Whitney test was usually applied, unless the numbers of mice in test groups were too small to perform this test (<5 mice in both test groups) and the unpaired two-tail t test was thus applied. Significance limit was set at a 2-tailed P value≦0.05.

[3] = of the 4 mice which developed signs of severe disease

SMILES: NCC(=O)CCC(=O)O [δ-ALA, 5-aminolevulinic acid]
- signs of photosensitivity or damage of the mucosa ([1]; any of the animals): No signs of photosensitivity or damage of the mucosa was observed
- endoscopic severity index after PDT ([1]; mice that could be followed up by colonoscopy): improved significantly
- mice cured by PDT [1, 3]: 2 mice
- mice with improved clinical signs after PDT [1, 3]: one
- mice without clinical response ([1]; one of the 4 mice which developed signs of severe disease): 25%
- EICS ([2]; marked inflamed mice (mean EICS 10.4±0.2 before), 15 mg/kg δ-ALA, 10 J/cm^2, 3 days after PDT, disease control 10.7±0.6, P<0.0001): 7.3±0.3
- EICS ([2]; marked inflamed mice, 15 mg/kg δ-ALA, 2 J/cm^2, 3 days after PDT, disease control 10.7±0.6, P=0.0271): 8.4±0.5
- EICS versus disease control group ([2]; marked inflamed mice, 15 mg/kg δ-ALA, 10 J/cm^2, up to 4 weeks after PDT): remained significantly lower than the one of the disease control group mice
- effect on colitis (EICS) versus disease control group ([2]; marked inflamed mice, 15 mg/kg δ-ALA, 20 J/cm^2, any time point): did not induce any significant beneficial effect
- EICS ([2]; marked inflamed mice, one single PDT treatment, time point 1 week after second PDT of comparison group): 9.8±0.5
- EICS ([2]; marked inflamed mice, one single PDT treatment, time point 2 weeks after second PDT of comparison group): 9.8±0.6
- EICS ([2]; marked inflamed mice, two PDT treatments (15 mg/kg, 10 J/cm^2) one week apart, 1 week after second PDT): 7.3±0.9
- EICS ([2]; marked inflamed mice, two PDT treatments one week apart, 2 weeks after second PDT): 7.33±0.3
- EICS versus disease control group ([2]; moderately inflamed mice, since week 2 post PDT): appeared no more significantly different from the one of the disease control group

From US20100087534A1, “Use of a Photosensitizing Agent in the Treatment or Prevention of an Inflammation-Associated Disorder in the Gastrointestinal Tract of a Mammal” (priority 2005, published 2010)
